Experimental data reported in patent US5455222A, “1-substituted-5-thiomethylthiocyanato-1H-tetrazoles, compositions containing them and their use as antimicrobial and marine antifouling agents” (The Dow Chemical Company, priority 1994, dated 1995).
Values after ≈ are worked out from the molar mass of the structure shown.

Tests used:
[1] = system: Aureobasidium pullulan (Ap); assay: Minimum inhibitory concentration (MIC), yeast/fungi in malt yeast agar; type: cell-based, Aureobasidium pullulan ATCC 16622; details: 30° C., read after 48 hours for yeast and 72 hours for fungi
Procedure: (§1) The minimum inhibitory concentration (MIC) for the compounds listed in Table I is determined for 9 bacteria, using nutrient agar, and 7 yeast and fungi, using malt yeast agar. A one percent solution of the test compound is prepared in a mixture of acetone and water.
(§2) Malt yeast agar is prepared by adding 3 g yeast extract and 45 g malt agar per liter of deionized water. The specific agar is dispensed in 30 mL aliquots into 25×200 mm test tubes, capped and autoclaved for 15 minutes at 115° C.
(§3) The test tubes containing the agar are cooled in a water bath until the temperature of the agar is 48° C. Then, an appropriate amount of the one percent solution of the test compound is added (except in the controls where no compound is added) to the respective test tubes so that the final concentrations are 500, 250, 100, 50, 25, 10, 5, 2.5, 1.0 and zero parts per million of the test compound in the agar, thus having a known concentration of test compound dispersed therein. The contents of the test tubes are then transferred to respective petri plates. After drying for 24 hours, the petri plates containing nutrient agar are inoculated with bacteria and those containing malt yeast agar are inoculated with yeast and fungi.
(§4) The inoculation with the yeast and fungi is accomplished as follows. Cultures of yeast and fungi are incubated for seven days on malt yeast agar at 30° C. These cultures are used to prepare suspensions by the following procedure. A suspension of each organism is prepared by adding 10 mL of sterile saline and 10 microliters of octylphenoxy polyethoxy ethanol to the agar slant of yeast or fungi. The sterile saline/octylphenoxy polyethoxy ethanol solution is then agitated with a sterile swab to suspend the microorganism grown on the slant. Each resulting suspension is diluted into sterile saline (1 part suspension to 9 parts sterile saline). Aliquots of these dilutions are placed in individual wells of Steer's Replicator and petri plates inoculated as previously described. The petri plates are incubated at 30° C. and read after 48 hours for yeast and 72 hours for fungi.
(§5) Table II lists the bacteria, yeast and fungi used in the MIC test described above along with their respective American Type Culture Collection (ATCC) identification numbers.
(§6) In Tables III and IV, the MIC values of the compounds described in Table I as compared to the MIC of a standard commercial preservative (with 1-(3-chloroallyl)-3,5,7-triaza-1-azoniaadamantane chloride as the active agent and referred to in Tables III and IV as "STANDARD I") are set forth for the bacteria organisms and yeast/fungi organisms which are listed in Table II.

[2] = system: Salmonella choleraesuis (Sc); assay: Minimum inhibitory concentration (MIC), bacteria in nutrient agar; type: cell-based, Salmonella choleraesuis ATCC 10708; details: Salmonella enterica, 48 hours
Procedure: as §1
(§7) Nutrient agar is prepared at pH 6.8, representing a neutral medium, and at pH 8.2, representing an alkaline medium. The nutrient agars are prepared by adding 23 g of nutrient agar to one liter of deionized water. In addition, the alkaline medium is prepared by adjusting a 0.04M solution of N-[tris-(hydroxymethyl)methyl]glycine buffered deionized water with concentrated sodium hydroxide to a pH of 8.5.
as §3
(§8) The inoculation with bacteria is accomplished by using the following procedure. Twenty-four hour-cultures of each of the bacteria are prepared by incubating the respective bacteria in tubes containing nutrient broth for 24 hours at 30° C. in a shaker. Dilutions of each of the 24 hour-cultures are made so that nine separate suspensions (one for each of the nine test bacteria) are made, each containing 10^8 colony forming units (CFU) per mL of suspension of a particular bacteria. Aliquots of 0.3 mL of each of the bacterial suspensions are used to fill the individual wells of Steer's Replicator. For each microbial suspension, 0.3 mL was used to fill three wells (i.e., three wells of 0.3 mL each) so that for the nine different bacteria, 27 wells are filled. The Steer's Replicator is then used to inoculate both the neutral and alkaline pH nutrient agar petri plates.
(§9) The inoculated petri plates are incubated at 30° C. for 48 hours and then read to determine if the test compound which is incorporated into the agar prevented growth of the respective bacteria.
as §5, §6

[3] = system: Fusarium oxysporum (Fo); assay: Minimum inhibitory concentration (MIC), yeast/fungi in malt yeast agar; type: cell-based, Fusarium oxysporum ATCC 48112; details: 30° C., 72 hours for fungi
Procedure: as §1, §2, §3, §4, §5, §6

[4] = system: Klebsiella pneumoniae (Kp); assay: Minimum inhibitory concentration (MIC), bacteria in nutrient agar; type: cell-based, Klebsiella pneumoniae ATCC 8308; details: 48 hours
Procedure: as §1, §7, §3, §8, §9, §5, §6

[5] = system: Staphylococcus aureus (Sa); assay: as above; type: cell-based, Staphylococcus aureus ATCC 6538; details: 48 hours
Procedure: as §1, §7, §3, §8, §9, §5, §6

[6] = system: Escherichia coli (Ec); assay: as above; type: cell-based, Escherichia coli ATCC 11229; details: 48 hours
Procedure: as §1, §7, §3, §8, §9, §5, §6

[7] = system: Enterobacter aerogenes (Ea); assay: as above; type: cell-based, Enterobacter aerogenes ATCC 13048; details: Klebsiella aerogenes, 48 hours
Procedure: as §1, §7, §3, §8, §9, §5, §6

| Structure (SMILES) | MIC [1] [µg/mL] | MIC ([2]; nutrient agar pH 6.8, 30° C.) [µg/mL] | MIC ([2]; nutrient agar pH 8.2, 30° C.) [µg/mL] | MIC [3] [µg/mL] | MIC ([4]; nutrient agar pH 6.8, 30° C.) [µg/mL] | MIC ([4]; nutrient agar pH 8.2, 30° C.) [µg/mL] | MIC ([5]; nutrient agar pH 6.8, 30° C.) [µg/mL] | MIC ([5]; nutrient agar pH 8.2, 30° C.) [µg/mL] | MIC ([6]; nutrient agar pH 6.8, 30° C.) [µg/mL] | MIC ([6]; nutrient agar pH 8.2, 30° C.) [µg/mL] | MIC ([7]; nutrient agar pH 6.8, 30° C.) [µg/mL] | MIC ([7]; nutrient agar pH 8.2, 30° C.) [µg/mL] |
| --- | --- | --- | --- | --- | --- | --- | --- | --- | --- | --- | --- | --- |
| N#CSCSc1nnnn1-c1cccc(Cl)c1 [II, 1-(3-Chlorophenyl)-5-thiomethylthiocyanato-1H-tetrazole] | < 10 | 500 (≈ 1760 µM) | 500 (≈ 1760 µM) | < 10 | 250 (≈ 881 µM) | 250 (≈ 881 µM) | 250 (≈ 881 µM) | 100 (≈ 352 µM) | 500 (≈ 1760 µM) | 500 (≈ 1760 µM) | 500 (≈ 1760 µM) | 500 (≈ 1760 µM) |
| N#CSCSc1nnnn1-c1ccc(Cl)cc1 [III, 1-(4-Chlorophenyl)-5-thiomethylthiocyanato-1H-tetrazole] | 2.5 (≈ 8.81 µM) | 25 (≈ 88.1 µM) | 100 (≈ 352 µM) | 2.5 (≈ 8.81 µM) | 25 (≈ 88.1 µM) | 50 (≈ 176 µM) | 25 (≈ 88.1 µM) | 50 (≈ 176 µM) | 25 (≈ 88.1 µM) | 250 (≈ 881 µM) | 25 (≈ 88.1 µM) | 250 (≈ 881 µM) |
| Cc1cccc(-n2nnnc2SCSC#N)c1 [VI, 1-(3-Methylphenyl)-5-thiomethylthiocyanato-1H-tetrazole] | < 1 | 500 (≈ 1900 µM) | 500 (≈ 1900 µM) | < 1 | 250 (≈ 949 µM) | 100 (≈ 380 µM) | 25 (≈ 94.9 µM) | 50 (≈ 190 µM) | 500 (≈ 1900 µM) | 500 (≈ 1900 µM) | 500 (≈ 1900 µM) | 500 (≈ 1900 µM) |
| N#CSCSc1nnnn1C1CCCCC1 [X, 1-(Cyclohexyl)-5-thiomethylthiocyanato-1H-tetrazole] | < 1 | 250 (≈ 979 µM) | 500 (≈ 1960 µM) | 5 (≈ 19.6 µM) | 250 (≈ 979 µM) | 100 (≈ 392 µM) | 25 (≈ 97.9 µM) | 50 (≈ 196 µM) | 250 (≈ 979 µM) | 500 (≈ 1960 µM) | 500 (≈ 1960 µM) | 500 (≈ 1960 µM) |
